Measurements reported in ChEMBL document CHEMBL4020723, “Indoles as therapeutics of interest in medicinal chemistry: Bird's eye view” (Eur J Med Chem, 2017).
Converted amounts (≈) assume the structure as drawn. Blank lines part the entries; values can stand above or below the molecule they belong to.

Tests used:
Plasmodium falciparum [1] = test: Antiplasmodial activity against chloroquine-resistant Plasmodium falciparum W2 infected in human erythrocytes after 72 hrs by giemsa staining based microscopic analysis; assay type: functional, cell-based; conditions: W2, 72 h
[2] = Cytotoxicity against human MDA-MB cells; assay type: functional, cell-based
A549 = test: Cytotoxicity against human A549 cells; assay type: functional, cell-based
HCT-8 = test: Cytotoxicity against human HCT8 cells; assay type: functional, cell-based
P388 [3] = test: Cytotoxicity against mouse P388 cells; assay type: functional, cell-based
Human alphaherpesvirus 2 = test: Antiviral activity against Herpes simplex virus type 2 by plaque reduction assay; assay type: functional; conditions: read-out: ID50 (the source's name)
Human alphaherpesvirus 1 = test: Antiviral activity against Herpes simplex virus type 1 by plaque reduction assay; assay type: functional; conditions: read-out: ID50 (the source's name)
[4] = system: Human immunodeficiency virus 1; test: Antiviral activity against HIV-1 assessed as inhibition of virus-induced syncytia formation; assay type: functional
Rattus norvegicus = test: Antiinflammatory activity in rat assessed as inhibition of carrageenan-induced paw edema at 50 mg/kg, po administered 1 hr prior to carrageenan challenge measured 4 hrs post dose; assay type: functional
HeLa = test: Cytotoxicity against human HeLa cells; assay type: functional, cell-based
Plasmodium falciparum [5] = test: Antimalarial activity against Plasmodium falciparum D6; assay type: functional
Mycobacterium = test: Antibacterial activity against Mycobacterium; assay type: functional
Staphylococcus aureus = test: Antibacterial activity against Staphylococcus aureus; assay type: functional
HL-60 = test: Cytotoxicity against human HL60 cells assessed as reduction in cell viability after 72 hrs by MTT assay; assay type: functional, cell-based; conditions: HL-60, 72 h
K562 = test: Cytotoxicity against human K562 cells assessed as reduction in cell viability after 72 hrs by MTT assay; assay type: functional, cell-based; conditions: K562, 72 h
[6] = biological target: Protein kinase C alpha type (Homo sapiens) (UniProt P17252); test: Inhibition of PKCalpha (unknown origin)
[7] = biological target: Protein kinase C beta type (Homo sapiens) (UniProt P05771); test: Inhibition of PKCbeta (unknown origin)
Chain of Protein kinase C beta type (Homo sapiens) (P05771 2-671 limits assumed): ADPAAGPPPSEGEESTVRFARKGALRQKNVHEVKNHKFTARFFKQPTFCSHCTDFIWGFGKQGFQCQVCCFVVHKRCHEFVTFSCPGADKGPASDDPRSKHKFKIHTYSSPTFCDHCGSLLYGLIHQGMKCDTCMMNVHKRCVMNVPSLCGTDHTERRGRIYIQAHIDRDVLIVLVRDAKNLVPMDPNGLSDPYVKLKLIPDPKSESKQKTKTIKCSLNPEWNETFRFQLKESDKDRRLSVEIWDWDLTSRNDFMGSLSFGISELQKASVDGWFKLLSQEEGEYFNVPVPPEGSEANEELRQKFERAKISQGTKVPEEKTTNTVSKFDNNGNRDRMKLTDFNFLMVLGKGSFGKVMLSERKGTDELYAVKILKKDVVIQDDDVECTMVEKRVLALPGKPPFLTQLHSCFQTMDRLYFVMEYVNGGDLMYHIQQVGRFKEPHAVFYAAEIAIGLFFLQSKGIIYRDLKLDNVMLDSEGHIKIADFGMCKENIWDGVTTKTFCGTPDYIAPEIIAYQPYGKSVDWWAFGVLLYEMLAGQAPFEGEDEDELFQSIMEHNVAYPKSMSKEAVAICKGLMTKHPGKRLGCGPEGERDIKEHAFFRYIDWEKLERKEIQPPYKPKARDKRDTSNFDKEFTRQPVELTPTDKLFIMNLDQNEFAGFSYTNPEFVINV

Streptococcus pyogenes = test: Antibacterial activity against Streptococcus pyogenes; assay type: functional
[8] = system: Staphylococcus haemolyticus; test: Antibacterial activity against Staphylococcus haemolyticus; assay type: functional
Enterococcus faecium = test: Antibacterial activity against Enterococcus faecium; assay type: functional
Bacillus subtilis = test: Antibacterial activity against Bacillus subtilis; assay type: functional
Enterococcus faecalis = test: Antibacterial activity against Enterococcus faecalis; assay type: functional
Plasmodium falciparum [9] = test: Antiplasmodial activity against chloroquine-resistant Plasmodium falciparum W2 after 24 hrs by liquid scintillation counting analysis; assay type: functional; conditions: W2, 24 h
Plasmodium falciparum [10] = test: Antiplasmodial activity against chloroquine-resistant Plasmodium falciparum K1 after 24 hrs by liquid scintillation counting analysis; assay type: functional; conditions: K1, 24 h
[11] = Inhibition of HDAC (unknown origin); parameters: species or system Homo sapiens
[12] = Cytotoxicity against human NSCLC-N6 cells; assay type: functional, cell-based
HT-29 = test: Cytotoxicity against human HT-29 cells; assay type: functional, cell-based
KB = test: Cytotoxicity against human KB cells; assay type: functional, cell-based
P388 [13] = test: Cytotoxicity against mouse doxorubicin-resistant P388 cells; assay type: functional, cell-based
Helicobacter pylori = test: Antibacterial activity against Helicobacter pylori; assay type: functional

Structure (SMILES): C=C1c2[nH]c3ccccc3c2C2C(CC)C1CCN2C (stereo not drawn)
- IC50 (Plasmodium falciparum [1]): < 1 µg/mL

Structure (SMILES): CN1C[C@H](c2c[nH]c3c(Br)c(Br)cc(O)c23)NC[C@H]1c1c[nH]c2cc(Br)ccc12
- IC50 [2]: 1 to 10 µg/mL (≈ 1.71 to 17.1 µM)
- IC50 (A549): 1 to 10 µg/mL (≈ 1.71 to 17.1 µM)
- IC50 (HCT-8): 1 to 10 µg/mL (≈ 1.71 to 17.1 µM)
- IC50 (P388 [3]): 15 µg/mL (≈ 25.7 µM)

- IC50 (Human alphaherpesvirus 2): 1500 µg/mL (≈ 6110 µM)
- IC50 (Human alphaherpesvirus 1): 1500 µg/mL (≈ 6110 µM)
Structure (SMILES): CC(C)CC(=O)[C@@H](O)Cc1c[nH]c2ccccc12

- EC50 [4]: 0.95 µg/mL (≈ 2.67 µM)
Structure (SMILES): COc1ccc2c(c1)N=CN1CCc3c([nH]c4ccccc34)C3=NCC[C@@]321

Structure (SMILES): O=C(O)c1ccc(C(=O)N/N=C/c2c(-c3cccs3)[nH]c3ccccc23)cc1
- inhibition in vivo at 50 mg/kg (Rattus norvegicus): 55.3%

Structure (SMILES): COC(=O)[C@@]1(C)Nc2c(O)cc3c(c2C1=O)C[C@@H](Br)CN3C(=O)c1cc2cc(OC)c(OC)c(OC)c2[nH]1
- IC50 (HeLa): 0.001 to 1 nM

- MIC (Plasmodium falciparum [5]): 6 µg/mL (≈ 10.6 µM)
Structure (SMILES): Oc1cccc2c1[nH]c1c(C3=C[C@@]4(O)CC/C=C\CCCCN5CC[C@@H]3[C@@]3(C[C@@H]6/C=C\CCCCN6[C@H]34)C5)nccc12

- MIC (Mycobacterium): 2 to 32 µg/mL (≈ 8.47 to 135 µM)
- MIC (Staphylococcus aureus): 8 to 64 µg/mL (≈ 33.9 to 271 µM)
Structure (SMILES): O=c1ccc2nccc3c4cccc(O)c4n1c23

Structure (SMILES): COC(=O)[C@@]1(C)Nc2c(O)cc3c(c2C1=O)[C@@H](CBr)CN3C(=O)c1cc2cc(OC)c(OC)c(OC)c2[nH]1
- IC50 (HeLa): 0.001 to 1 nM

Structure (SMILES): CC(C)=CCc1cccc2c1N[C@@H]1N3C(=O)[C@H](Cc4c[nH]c5c(CC=C(C)C)cccc45)NC(=O)[C@@H]3C[C@]21O
- IC50 (HL-60): 780 nM
- IC50 (K562): 22400 nM

Structure (SMILES): COC(=O)[C@@]1(C)NC2=C(C1=O)[C@@]13C[C@H]1CN(C(=O)c1cc4cc(OC)c(OC)c(OC)c4[nH]1)C3=CC2=O
- IC50 (HeLa): 0.001 to 1 nM

- MIC (Plasmodium falciparum [5]): 0.34 µg/mL (≈ 1.02 µM)
Structure (SMILES): CN1C(=N)N(C)/C(=C/c2c[nH]c3cc(Br)ccc23)C1=O

- MIC (Plasmodium falciparum [5]): 11 µg/mL (≈ 19.5 µM)
Structure (SMILES): [O-][n+]1ccc2c([nH]c3ccccc32)c1C1=C[C@@]2(O)CC/C=C\CCCCN3CC[C@@H]1[C@]1(C[C@@H]4/C=C\CCCCN4[C@H]12)C3

- INH [6]: 2.3 nM
- INH [7]: 6.2 nM
Structure (SMILES): N#CCCn1c2ccccc2c2c3c(c4c5ccccc5[nH]c4c21)C(=O)NC3

- MIC (Streptococcus pyogenes): 4 to 32 µg/mL (≈ 7.43 to 59.5 µM)
- MIC (Enterococcus faecium): 4 to 32 µg/mL (≈ 7.43 to 59.5 µM)
- MIC (Staphylococcus aureus): 4 to 32 µg/mL (≈ 7.43 to 59.5 µM)
- MIC (Bacillus subtilis): 4 to 32 µg/mL (≈ 7.43 to 59.5 µM)
- MIC (Enterococcus faecalis): 4 to 32 µg/mL (≈ 7.43 to 59.5 µM)
Structure (SMILES): CN[C@@H](CC(C)C)C(=O)NCCc1c(Br)n(C)c2cc(Br)c(Br)cc12 [ALTEMATAMIDE A]
- MIC [8]: 4 to 32 µg/mL (≈ 7.43 to 59.5 µM)

- MIC (Streptococcus pyogenes): 4 to 32 µg/mL (≈ 7.63 to 61.1 µM)
- MIC (Enterococcus faecium): 4 to 32 µg/mL (≈ 7.63 to 61.1 µM)
- MIC (Staphylococcus aureus): 4 to 32 µg/mL (≈ 7.63 to 61.1 µM)
- MIC (Bacillus subtilis): 4 to 32 µg/mL (≈ 7.63 to 61.1 µM)
- MIC (Enterococcus faecalis): 4 to 32 µg/mL (≈ 7.63 to 61.1 µM)
Structure (SMILES): CN[C@@H](CC(C)C)C(=O)NCCc1c(Br)[nH]c2cc(Br)c(Br)cc12 [ALTEMATAMIDE B]
- MIC [8]: 4 to 32 µg/mL (≈ 7.63 to 61.1 µM)

- MIC (Streptococcus pyogenes): 4 to 32 µg/mL (≈ 8.98 to 71.9 µM)
- MIC (Enterococcus faecium): 4 to 32 µg/mL (≈ 8.98 to 71.9 µM)
- MIC (Staphylococcus aureus): 4 to 32 µg/mL (≈ 8.98 to 71.9 µM)
- MIC (Bacillus subtilis): 4 to 32 µg/mL (≈ 8.98 to 71.9 µM)
- MIC (Enterococcus faecalis): 4 to 32 µg/mL (≈ 8.98 to 71.9 µM)
Structure (SMILES): CN[C@@H](CC(C)C)C(=O)NCCc1c(Br)[nH]c2ccc(Br)cc12 [ALTEMATAMIDE C]
- MIC [8]: 4 to 32 µg/mL (≈ 8.98 to 71.9 µM)

- MIC (Mycobacterium): 2 to 32 µg/mL (≈ 9.08 to 145 µM)
- MIC (Staphylococcus aureus): 8 to 64 µg/mL (≈ 36.3 to 291 µM)
Structure (SMILES): O=c1ccc2nccc3c4ccccc4n1c23 [CANTHIN-6-ONE]

Structure (SMILES): C[n+]1c2ccccc2cc2[n-]c3ccccc3c21.Cl [CRYPTOLEPINE HYDROCHLORIDE]
- IC50 (Plasmodium falciparum [9]): 0.027 to 0.063 µg/mL
- IC50 (Plasmodium falciparum [10]): 0.027 to 0.063 µg/mL

Structure (SMILES): C[n+]1c2ccccc2cc2[n-]c3ccccc3c21 [CRYPTOLEPINE]
- IC50 (Plasmodium falciparum [9]): 0.027 to 0.063 µg/mL (≈ 0.116 to 0.271 µM)
- IC50 (Plasmodium falciparum [10]): 0.027 to 0.063 µg/mL (≈ 0.116 to 0.271 µM)

- IC50 [11]: 32 nM
Structure (SMILES): O=C(/C=C/c1ccc(CN(CCO)CCc2c[nH]c3ccccc23)cc1)NO [DACINOSTAT]

Structure (SMILES): NCCc1c(C(CN)c2c[nH]c3cc(Br)ccc23)[nH]c2cc(C(CN)c3c[nH]c4cc(Br)ccc34)c(O)cc12 (stereo not drawn) [GELLIUSINE A]
- IC50 [12]: 10 to 20 µg/mL (≈ 15.4 to 30.7 µM)
- IC50 (HT-29): 10 to 20 µg/mL (≈ 15.4 to 30.7 µM)
- IC50 (KB): 10 to 20 µg/mL (≈ 15.4 to 30.7 µM)
- IC50 (P388 [13]): 10 to 20 µg/mL (≈ 15.4 to 30.7 µM)
- IC50 (P388 [3]): 10 to 20 µg/mL (≈ 15.4 to 30.7 µM)

Structure (SMILES): Cn1c2c3ccccc3nc-2c(O)c2ccccc21 [HYDROXYCRYPTOLEPINE]
- IC50 (Plasmodium falciparum [9]): 0.027 to 0.063 µg/mL (≈ 0.109 to 0.254 µM)
- IC50 (Plasmodium falciparum [10]): 0.027 to 0.063 µg/mL (≈ 0.109 to 0.254 µM)

Structure (SMILES): CNC1=NC(=O)[C@H]([C@H](C)c2c[nH]c3ccccc23)O1 [INDOMYCIN]
- MIC (Helicobacter pylori): 0.016 µg/mL (≈ 0.0622 µM)
- MIC (Staphylococcus aureus): 0.5 µg/mL (≈ 1.94 µM)

Structure (SMILES): O[C@]12C=C(c3nccc4c3[nH]c3ccccc34)[C@@H]3CCN(CCCC/C=C\CC1)C[C@@]31C[C@@H]3/C=C\CCCCN3[C@H]12 [MANZAMINE A]
- MIC (Plasmodium falciparum [5]): 4.5 µg/mL (≈ 8.2 µM)

Structure (SMILES): Cn1c2nc3ccccc3c-2cc2ccccc21 [NEOCRYPTOLEPINE]
- IC50 (Plasmodium falciparum [9]): 0.027 to 0.063 µg/mL (≈ 0.116 to 0.271 µM)
- IC50 (Plasmodium falciparum [10]): 0.027 to 0.063 µg/mL (≈ 0.116 to 0.271 µM)
